In PMC7261837, “Circumdatin D Exerts Neuroprotective Effects by Attenuating LPS-Induced Pro-Inflammatory Responses and Downregulating Acetylcholinesterase Activity In Vitro and In Vivo” (Frontiers in Pharmacology, 2020):

What was measured:
[1] = test system: BV-2 cells; test: LPS-induced NO production in BV-2 cells (Griess method); assay type: cell-based, murine; details: 1 μg/ml LPS, 24 h
Description: BV-2 cells (murine microglia cell line) was obtained from Peking Union Medical College, Cell Bank (Beijing, China) and maintained in DMEM containing 10% FBS. Cells were grown in a humidified atmosphere of 5% CO2 incubator at 37°C.
BV2 cells were seeded and incubated overnight, and followed by treatment with different doses of circumdatins for indicated period with or without LPS (1 μg/ml) stimulation. The cells without circumdatins and LPS treatment were used as the control group.
The NO levels in culture media was determined using a Griess method. Cells were treated with different concentrations of circumdatins in the presence or absence of LPS for 24 h. After that, the supernatant fraction of the culture media was collected and mixed with the same volume of Griess reagent (1% sulfanilamide/0.1% naphthyl ethylene diamine dihydrochloride/2% H3PO4). Then, the absorbance was measured at 540 nm using a microplate spectrophotometer (Thermo Scientifics, USA). The concentration of nitrite was calculated from a calibration curve obtained from standards sodium nitrite solutions.

[2] = test system: primary cortical neurons; test: MTT assay in primary neuron-enriched cells; assay type: cell-based, Sprague Dawley rats; details: 48 h, 1–100 μM
Description: (§1) Primary microglia were prepared from the cortical tissue of neonatal (1–3 d) Sprague Dawley rats as [Ni and Aschner (2010)] described and primary cortical neurons were isolated from embryos of pregnant Sprague Dawley rats of E-18 ([Zeng et al., 2012]). All experimental manipulations with the animals was reviewed and approved by the animal experimental ethics committee of Peking University. The animals used in the work were performed in accordance with the Animal Care and Use Guidelines of Peking University.
(§2) In vitro cytotoxicity was detected using the MTT assay. Cells were treated with different concentrations of circumdatins in the presence or absence of LPS for 48 h. Then, MTT reagent was added to each well and the plates were further incubated at 37°C for 4 h. The absorbance was read at 570 nm using a microplate spectrophotometer (Thermo Scientifics, USA).

[3] = test system: NF-κB signaling pathway; test: NF-κB p65 translocation and IKK/IκB phosphorylation in LPS-induced BV-2 cells; assay type: cell-based, murine; details: 1 μg/ml LPS, 10, 20, 50 μM, 3 h
Description: BV2 cells were seeded on glass coverslips and treated with circumdatin D in the presence or absence of LPS for indicated time. After that, the cells were washed twice with PBS and fixed with cold 4% paraformaldehyde for 30 min. Then, the cells were permeabilized with 0.1% Triton X-100 for 10 min and blocked with 5% bovine serum albumin for 1 h. After incubation with primary antibodies overnight at 4°C, the cells were incubated with Alexa Fluor 488-conjugated secondary antibodies (Proteintech, USA) for 1 h at room temperature. Furthermore, Hochest 33342 was added to stain cell nuclei. Images were acquired and analyzed using a confocal microscope (Leica, Germany).
(§3) Total cell proteins were lysed using cell extraction buffer containing phenylmethylsulfonyl ﬂuoride and protease inhibitor cocktail. The cytosolic and nuclear extracts were collected using the Nuclear and Cytosolic extraction kit. The protein extracts were separated on SDS-PAGE and transferred to PVDF membranes (Millipore). The membrane was blocked with 5% nonfat milk for 1 h at room temperature, and incubated with indicated primary antibodies overnight at 4°C. After washing, the membrane was incubated with secondary antibodies conjugated to horseradish peroxidase (Proteintech, USA) at room temperature for 1 h. Then, the proteins of interest were visualized utilizing a chemiluminescence (ECL) detection system. The relative optical densities were analyzed using the Image Master™ 2D Elite software.

[4] = test system: primary microglia cells; test: MTT assay in primary microglia; assay type: cell-based, Sprague Dawley rats; details: untreated and LPS-stimulated cells, 1–100 μM, 48 h
Description: as §1, §2
Cell surviability was detected using the MTT assay. Cells were seeded in 96-well plates and incubated overnight, following which the cells were treated with different concentrations of circumdatins with or without 1µg/mL of LPS for indicated time. Then, the cells were subsequently cultured with MTT and incubated for 4 hours at 37°C. Thereafter, the purple formazan dye was dissolved in DMSO and the absorbance was measured at 570 nm.

[5] = biological target: Recombinant AChE (Homo sapiens, UniProt P22303); test: biochemical; details: SPR, 25°C, 1:1 Langmuir binding model; read-out: AChE Affinity Kd
Description: The experiments for surface plasmon resonance (SPR) interaction were conducted at 25°C using the Biacore T200 system (GE Healthcare, Sweden). Recombinant AChE diluted in sodium acetate buffer (100 mM, pH 4.5) was used as the stock for the following experiments. CM5 sensor chips were coupled with AChE using an amine coupling kit (GE Healthcare, Buckinghamshire, UK). Thereafter, different concentrations of compounds were injected as analytes using PBS-P (10mM phosphate buffer with 2.7 mM KCl and 137 mM NaCl, 0.05% polysorbate 20, […]) as running buffer. For binding assays, the analytes were introduced with a 60 s contact time followed by a 60 s dissociation time at a flow rate of 45 μl/min. The surface was regenerated with 10 mM glycine (pH 3.0) for 30 s. The affinity constants were calculated using the 1:1 Langmuir binding model of Biacore evaluation software (T200 Version 1.0).

[6] = test system: BV-2 cells; test: RT-PCR of TNF-α, IL-1β, iNOS and COX-2 mRNA in LPS-induced BV-2 cells; assay type: cell-based, murine; details: 1 μg/ml LPS, 10, 20, 50 μM, 24 h
Description: Total RNA was extracted using TRIzol reagent (Life Technologies, NY) and then reverse-transcribed into cDNA by reverse transcriptase (Invitrogen). mRNA expression of target genes iNOS, COX-2, IL-1β and TNF-α was quantified in comparison to housekeeping gene GAPDH using SYBR green detection method on ABI 7500 system (Applied Biosystems). The relative gene expression was calculated using comparative Ct (ΔΔCt) method. The following primers in Table 1 were used in this study.

[7] = test system: BV-2 cells; test: Western blot of iNOS and COX-2 in LPS-induced BV-2 cells; assay type: cell-based, murine; details: 1 μg/ml LPS, 10, 20, 50 μM, 24 h
Description: as §3

[8] = test system: NF-κB; test: NF-κB luciferase reporter assay; assay type: cell-based; details: Homo sapiens; SW480 cells stably transfected with NF-κB luciferase reporter gene, induced by LPS; mean ± SD (n = 3); read-out: NF-κB Activation IC50
Description: SW480-NF-κB cells were seeded at a density of 5 × 10^4 cells/well in 24-well plates and incubated with circumdatins with or without LPS stimulation for 6 h. The κB-dependent luciferase reporter activity in cell extracts was monitored using an automated microplate reader.

Chain of Recombinant AChE (P22303 32-614): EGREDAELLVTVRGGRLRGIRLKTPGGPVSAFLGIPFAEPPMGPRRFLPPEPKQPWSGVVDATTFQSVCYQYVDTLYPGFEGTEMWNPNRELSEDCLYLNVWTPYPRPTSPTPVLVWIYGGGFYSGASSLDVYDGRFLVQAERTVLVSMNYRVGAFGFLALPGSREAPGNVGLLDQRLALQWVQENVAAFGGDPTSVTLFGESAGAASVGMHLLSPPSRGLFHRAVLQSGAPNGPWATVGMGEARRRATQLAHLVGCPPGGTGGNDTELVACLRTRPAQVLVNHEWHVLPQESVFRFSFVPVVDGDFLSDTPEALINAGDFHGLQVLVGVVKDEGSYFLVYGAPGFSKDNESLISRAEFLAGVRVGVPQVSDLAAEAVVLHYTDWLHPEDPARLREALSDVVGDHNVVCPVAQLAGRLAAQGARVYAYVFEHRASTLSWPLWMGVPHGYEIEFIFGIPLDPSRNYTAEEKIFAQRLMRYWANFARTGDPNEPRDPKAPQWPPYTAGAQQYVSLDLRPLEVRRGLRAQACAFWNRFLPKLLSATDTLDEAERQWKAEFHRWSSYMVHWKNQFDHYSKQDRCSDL

COc1ccc2c(c1)C(=O)N1CCC[C@H]1c1nc3ccc(OC)cc3c(=O)n1-2 [circumdatin D]
LPS-induced NO production [1]: significant reduction of NO levels
direct toxicity to neurons (MTT) [2]: no direct toxic to neurons
NF-κB nuclear translocation (immunofluorescence) [3]: inhibited LPS-induced NF-κB nuclear translocation
nuclear NF-κB p65 levels (Western blot) [3]: reduced nuclear NF-κB p65 levels significantly
phosphorylation levels of IKK and IκB [3]: down-regulated the phosphorylation levels of IKK and IκB
toxicity in primary microglial cultures (MTT) [4]: low toxicity
Kd [5]: 1.9 µM
iNOS and COX-2 mRNA expression levels (q-PCR) [6]: dose-dependently decreasing the expression levels of both iNOS and COX-2
proinflammatory cytokines mRNA levels [6]: significantly decreased proinflammatory cytokines
iNOS and COX-2 protein expression [7]: reduced LPS-induced COX-2 and iNOS expression dose-dependently
IC50 [8]: 8.7 ± 1.3 µM
